Measurements taken from patent US20240307401A1, “TREATMENT OF JAK-INHIBITION-RESPONSIVE DISORDERS WITH PRODRUGS OF JAK INHIBITORS” (SUN PHARMACEEUTICAL INDUSTRIES, INC., priority 2021, published 2024).

Tests used:
[1] = system: patients suffering from alopecia areata; settings: human clinical trials, at certain doses; cited from earlier work
[2] = In vitro conversion of Compound (I-1d) DBTA salt to CTP-543 under conditions similar to human stomach (0.1N HCl, 37° C.), HPLC analysis; assay type: physicochemical; settings: for CTP-543 Concentration: 28.5 mg DBTA salt in 250 mL
Experimental: An in vitro study was conducted to test the conversion of the dibenzoyl-D-tartaric acid (DBTA) salt of Compound (I-1d) (a compound of Formula (I)) to CTP-543 (a compound of Formula (III)) when subjected to biologically-relevant conditions similar to human stomach conditions (0.1N hydrochloric acid, 37° C.).
Study Conditions: At 37° C., 28.5 mg of Compound (I-1d)·DBTA salt (equivalent to 14.6 mg of Compound (I-1d)) was added to 250 mL of 0.1N HCl while stirring. Samples were removed via syringe at 30, 60, 120 and 240 minutes, (times relevant to potential human gastric residence time), then were filtered through a syringe filter and analyzed by HPLC.

SMILES | Hair growth in patients suffering from alopecia areata [1] | % Conversion to CTP-543 ([2]; 30 min) [%] | CTP-543 Concentration ([2]; 30 min) [mg/mL] | % Conversion to CTP-543 ([2]; 60 min) [%] | CTP-543 Concentration ([2]; 60 min) [mg/mL] | % Conversion to CTP-543 ([2]; 120 min) [%] | CTP-543 Concentration ([2]; 120 min) [mg/mL] | % Conversion to CTP-543 ([2]; 240 min) [%] | CTP-543 Concentration ([2]; 240 min) [mg/mL]
[2H]C1([2H])C([C@@H](CC#N)n2cc(-c3ncnc4[nH]ccc34)cn2)C([2H])([2H])C([2H])([2H])C1([2H])[2H] [CTP-543, (R)-3-(4-(7H-pyrrolo[2,3-d]pyrimidin-4-yl)-1H-pyrazol-1-yl)-3-(cyclopentyl-2,2,3,3,4,4,5,5-d8)propanenitrile] | shown to stimulate hair growth |  |  |  |  |  |  |  | 
[2H]C1([2H])C([C@@H](CC#N)n2cc(-c3ncnc(N)c3CC(OC)OC)cn2)C([2H])([2H])C([2H])([2H])C1([2H])[2H] [Compound (I-1d)] |  | 8 | 0.004 | 10 | 0.005 | 16 | 0.008 | 22 | 0.011
